According to patent US11236111B2, “Hepatitis B antiviral agents” (Enanta Pharmaceuticals, Inc., priority 2019, dated 2022):

How the values were obtained:
HBV = assay: HepAD38 anti-HBV assay: reduction of viral product accumulation (virion DNA by qPCR, HBsAg or HBeAg by ELISA); format: cell-based; settings: Hepatitis B virus, 120 h, HepAD38 cells, harvest five days after compound addition, 50% reduction of viral product vs no drug controls
Protocol: Methods: HepAD38 cells are maintained as previously reported (Ladner et al, Antimicrob. Agents Chemother. 1997, […], 1715). Briefly, cells are passaged upon attaining confluency in DMEM/F12 media in the presence of 10% FBS, Penn/Strep, 250 μg/mL G418, and 1 μg/ml tetracycline. Novel compounds are screened by first washing cells three times with PBS to remove tetracycline, and plating in 96 well plates at 35,000 cells/well. Compounds dissolved in DMSO are then diluted 1:200 into wells containing cells. Five days after compound addition, material is harvested for analysis. For an extended 8 day analysis, cells are plated and treated as described above, but media and compound are refreshed on d2 and d5 post initial treatment.
On harvest day, virion DNA is obtained by lysing with Sidestep Lysis and Stabilization Buffer and then quantified via quantitative real time PCR. Commercially available ELISA kits are used to quantitate the viral proteins HBsAg (Alpco) or HbeAg (US Biological) by following the manufacturer's recommended protocol after diluting samples to match the linear range of their respective assays. Irrespective of readout, compound concentrations that reduce viral product accumulation in the cell lysates or supernatants by 50% relative to no drug controls (EC50) are reported; EC50 ranges are as follows: A<0.1 μM; B 0.1-0.4 μM; C>0.4 μM.

[1] = Compound toxicity, total ATP levels (ATPLite); format: cell-based; settings: human, HepG2 cells; three days after compound addition; 50% reduction of total ATP vs no drug controls
Protocol: Compound toxicity is evaluated by seeding cells at 15,000 cells/well and treating with compound as described above.

SMILES: C#CCN1CC2(CC3=C(c4ccn(C(F)F)n4)[C@H](c4ccc(F)cc4Cl)N=C(c4nccs4)N3C2)OC1=O (stereo partly shown) [Example 1]
- EC50 (HBV; class symbols): > 0.4 µM

SMILES: C=CCN1CC2(CC3=C(c4ccn(C(F)F)n4)[C@H](c4ccc(F)cc4Cl)N=C(c4nccs4)N3C2)OC1=O (stereo partly shown) [Example 2]
- EC50 (HBV; class symbols): > 0.4 µM

SMILES: O=C1OC2(CC3=C(c4ccn(C(F)F)n4)[C@H](c4ccc(F)cc4Cl)N=C(c4nccs4)N3C2)CN1Cc1ccccc1 (stereo partly shown) [Example 3]
- EC50 (HBV; class symbols): > 0.4 µM

SMILES: C=CCN1C[C@@]2(CC3=C(c4ccn(C(F)F)n4)[C@H](c4ccc(F)cc4Cl)N=C(c4nccs4)N3C2)NC1=O [Example 4]
- EC50 (HBV; class symbols): < 0.1 µM

SMILES: C=CCN1C[C@]2(CC3=C(c4ccn(C(F)F)n4)[C@H](c4ccc(F)cc4Cl)N=C(c4nccs4)N3C2)NC1=O [Example 5]
- EC50 (HBV; class symbols): 0.1 to 0.4 µM

SMILES: O=C1N[C@@]2(CO1)CC1=C(c3cnn(C(F)F)n3)[C@H](c3ccc(F)cc3Cl)N=C(c3nccs3)N1C2 [Example 6]
- EC50 (HBV; class symbols): < 0.1 µM
- CC50 at 3 days [1]: > 25 µM

SMILES: O=C1N[C@@]2(CO1)CC1=C(c3ccn(C(F)F)n3)[C@H](c3ccc(Cl)c(F)c3)N=C(c3nccs3)N1C2 [Example 7]
- EC50 (HBV; class symbols): < 0.1 µM
- CC50 at 3 days [1]: > 25 µM

SMILES: O=C1N[C@@]2(CO1)CC1=C(c3ccn(C(F)F)n3)[C@@H](c3ccc(Cl)c(F)c3)N=C(c3nccs3)N1C2 [Example 8]
- EC50 (HBV; given as numeric bound): > 0.1 µM

SMILES: O=C1N[C@@]2(CO1)CC1=C(c3cnn(C(F)F)c3)[C@H](c3ccc(Cl)c(F)c3)N=C(c3nccs3)N1C2 [Example 9]
- EC50 (HBV; class symbols): < 0.1 µM

SMILES: O=C1N[C@@]2(CO1)CC1=C(c3cnn(C(F)F)c3)[C@@H](c3ccc(Cl)c(F)c3)N=C(c3nccs3)N1C2 [Example 10]
- EC50 (HBV; given as numeric bound): > 0.1 µM

SMILES: COC(=O)C1=C2C[C@@]3(COC(=O)N3)CN2C(c2nccs2)=N[C@H]1c1ccc(Cl)c(F)c1 [Example 11]
- EC50 (HBV; class symbols): < 0.1 µM

SMILES: COC(=O)C1=C2C[C@@]3(COC(=O)N3)CN2C(c2nccs2)=N[C@@H]1c1ccc(Cl)c(F)c1 [Example 12]
- EC50 (HBV; given as numeric bound): > 0.1 µM

SMILES: O=C1N[C@]2(CO1)CC1=C(c3ccn(C(F)F)n3)[C@H](c3ccc(Cl)c(F)c3)N=C(c3nccs3)N1C2 [Example 13]
- EC50 (HBV; class symbols): < 0.1 µM
- CC50 at 3 days [1]: > 25 µM

SMILES: O=C1N[C@]2(CO1)CC1=C(c3ccn(C(F)F)n3)[C@@H](c3ccc(Cl)c(F)c3)N=C(c3nccs3)N1C2 [Example 14]
- EC50 (HBV; given as numeric bound): > 0.1 µM

SMILES: O=C1N[C@@]2(CO1)CC1=C(c3ccn(C(F)F)n3)[C@H](c3ccc(F)c(F)c3)N=C(c3nccs3)N1C2 [Example 15]
- EC50 (HBV; class symbols): < 0.1 µM
- CC50 at 3 days [1]: > 25 µM

SMILES: O=C1N[C@@]2(CO1)CC1=C(c3ccn(C(F)F)n3)[C@@H](c3ccc(F)c(F)c3)N=C(c3nccs3)N1C2 [Example 16]
- EC50 (HBV; given as numeric bound): > 0.1 µM

SMILES: O=C1N[C@@]2(CO1)CC1=C(c3ccn(C(F)F)n3)[C@H](c3ccc(Cl)c(F)c3)N=C(c3ccccn3)N1C2 [Example 17]
- EC50 (HBV; given as numeric bound): > 0.1 µM

SMILES: O=C1N[C@@]2(CO1)CC1=C(c3ccn(C(F)F)n3)[C@@H](c3ccc(Cl)c(F)c3)N=C(c3ccccn3)N1C2 [Example 18]
- EC50 (HBV; given as numeric bound): > 0.1 µM
